In the test the test system is MSA patients. The test is described as follows: Efficacy on the UMSARS scale. It counts as in vivo, human. Particulars: for UMSARS activities of daily living sub-score, change: score 0 to 48, lower is better, p-value >0.05. On the procedure: For each eligible patient: during the first visit, the investigator carries out a specific complementary clinical examination MSA (validated specific scale: UMSARS) in order to score the basal level of the patient at inclusion on 4 axes: activities of daily living (12 items), motor level (14 items), orthostatic hypotension [4 measures: BP standing/sleeping (2 min); CF standing/sleeping (2 min) and orthostatic symptoms [Y/N] and finally, decide on their level of disability (1 item). During this visit, they are given pillbox No 1. They are told to start the product under study the next morning, on D1. In fact, the first intake of the dietary supplement can be taken the next morning with breakfast (2 capsules). Pill box No 1 must be returned at visit V2 (D15) to check compliance. A first daily follow-up notebook (follow-up notebook no 1) is given to the patient to record the intake of the food supplement, the concomitant treatments (if applicable) and any undesirable events that may have occurred. Follow-up notebook no 1 should be returned to the investigator at the V2 follow-up visit. The nurse goes to the patient's home 2 days before each follow-up visit in order to carry out the blood test (safety biology), take the hemodynamic constants standing/lying down (after a 2 minute rest): SAP/DAP and HR which is filled in the patient's follow-up notebook. The nurse checks the patient's compliance with the pillbox and the follow-up booklet. The nurse also reminds the patient not to forget to bring back the pill dispenser and the follow-up booklet at each visit. The investigator also takes the hemodynamic constants of the patient standing and lying down (after 2 minutes rest): SAP/DAP and HR. During this consultation, the patient/carer is also asked to answer a specific quality of life questionnaire (MSA-QoL questionnaire). If the patient meets all the eligibility criteria (apart from biology), the neurologist gives them a medical prescription to carry out a biological assessment. This biological assessment must be carried out within 3 days depending on the patient's availability. To do this, a nurse visits the patient at his/her home to collect the biological samples and to send it to the Medical Analysis Laboratories, the local reference laboratory for this research.
During the third visit at D45 and fourth visit at D90, the investigator also carries out a specific complementary clinical examination MSA (validated specific scale: UMSARS) in order to score the patient's level after 3 months of NMN supplementation on 4 axes: activities of daily living (12 items), motor level (14 items), orthostatic hypotension [4 measures: BP standing/sleeping (2 min); HR standing/sleeping (2 min) and orthostatic symptoms Y/N] and finally decide on their level of disability (1 item).

The structures appear in SMILES notation.

For `NC(=O)c1ccc[n+]([C@@H]2O[C@H](COP(=O)([O-])O)[C@@H](O)[C@H]2O)c1` [beta-NMN, nicotinamide mononucleotide], the “UMSARS Motor Examination Scale: improved items” value (NMN 400 mg/day, 3 months) was “facial expression and tremor at rest”. In addition, where the note is “NMN 400 mg/day, 3 months”, the “UMSARS activities of daily living: improved items” value is “speech, writing, eating and handling cutlery, dressing, risk of falling and orthostatic symptoms”. Further, the “UMSARS disability scale score” value by setting is: (PP population, 3.5±1.0 points at VO, scale 1 to 5) “maintained at V3 and V4”; (mITT population, 2.9±1.4 points at VO, scale 1 to 5, lower is more independent) “perfectly maintained at V3 and V4”. The “Orthostatic hypotension (OH)” value (V3 and V4, OH had been detected in these patients at previous visits, other patients unchanged) was “two patients showed no signs of OH at V3 and V4”. The “functional situation of the patients” value (at 1.5 months and 3 months, mITT and PP populations) was “slight improvement”. Also, the “UMSARS motor examination, overall” value (at 3 months, mITT and PP) is recorded as “did not show any improvement in the motor examination but did not show any deterioration”. Besides, the “UMSARS activities of daily living sub-score, change” value (mITT population, V3 vs VO (16.3±6.8 points)) is listed as −0.3 point and the “UMSARS activities of daily living sub-score, change” value (mITT population, V4 vs VO (16.3±6.8 points)) was −1.0 point. For the same compound, the “UMSARS Motor Examination Scale sub-score, change” value (mITT population, V3 vs VO (18.5±11.3 points), score 0 to 56, lower is better) is listed as −0.6 points. Under “mITT population, V4, VO 18.5±11.3 points”, the “UMSARS Motor Examination Scale sub-score” value is “rises again at V4 to reach the score observed at VO”.
